Measurements published in patent publication US20130180014A1, “Pyridine Compounds for Controlling Invertebrate Pests III” (BASF SE, priority 2010, published 2013).

Columns and labels:
Type in all cases: in vivo
[1] = system: Myzus persicae; test: Green peach aphid, systemic, artificial diet under membrane in 96-well plate; details: 72 h, 3 days, in comparison with untreated controls
From the text: For evaluating control of green peach aphid (Myzus persicae) through systemic means the test unit consisted of 96-well-microtiter plates containing liquid artificial diet under an artificial membrane.
The compounds were formulated using a solution containing 75% vol/vol water and 25% vol/vol DMSO. Different concentrations of formulated compounds were pipetted into the aphid diet, using a custom built pipetter, at two replications. After application, 5 to 8 adult aphids were placed on the artificial membrane inside the microtiter plate wells. The aphids were then allowed to suck on the treated aphid diet and incubated at about 23+1° C. and about 50+5% relative humidity for 3 days. Aphid mortality and fecundity was then visually assessed.

[2] = system: Aphis gossypii; test: Cotton aphid, mixed life stages, method a) cotyledon dip; details: cotton cotyledons dipped, in comparison with untreated controls
From the text: (§1) The active compounds were formulated in 50:50 (vol/vol) acetone:water and 100 ppm Kinetica™ surfactant.
Cotton plants at the cotyledon stage (one plant per pot) were infested by placing a heavily infested leaf from the main colony on top of each cotyledon. The aphids were allowed to transfer to the host plant overnight, and the leaf used to transfer the aphids was removed. The cotyledons were dipped in the test solution and allowed to dry. After days, mortality counts were made.

[3] = system: Myzus persicae; test: Green peach aphid, mixed life stages, method a) pepper leaf dip; details: foliar, 120 h, pepper leaves dipped, after 5 days, in comparison with untreated controls
From the text: as §1
Pepper plants in the 2nd leaf-pair stage (variety ‘California Wonder’) were infested with approximately 40 laboratory-reared aphids by placing infested leaf sections on top of the test plants. The leaf sections were removed after 24 hr. The leaves of the intact plants were dipped into gradient solutions of the test compound and allowed to dry. Test plants were maintained under fluorescent light (24 hour photoperiod) at about 25° C. and 20-40% relative humidity. Aphid mortality on the treated plants, relative to mortality on check plants, was determined after 5 days.

[4] = system: Megoura viciae; test: Vetch aphid, bean leaf disk in microtiterplate; details: foliar, 144 h, test solution 2500 mg/L, leaf disks sprayed with 2.5 μl, 6 days
Protocol: The active compounds were formulated in 1:3 (vol/vol) DMSO:water with different concentrations of formulated compounds.
Bean leaf disks were placed into microtiterplates filled with 0.8% agar-agar and 2.5 ppm OPUS™. The leaf disks were sprayed with 2.5 μl of the test solution and 5 to 8 adult aphids were placed into the microtiterplates which were then closed and kept at 23±1° C. and 50±5% relative humidity under fluorescent light for 6 days. Mortality was assessed on the basis of vital, reproduced aphids. Aphid mortality and fecundity was then visually assessed.

[5] = system: Aphis craccivora; test: Cowpea aphid, spray on potted cowpea plants; details: cowpea plants sprayed, assessed after 24, 72 and 120 hours, in comparison with untreated controls
Protocol: The active compounds were formulated in 50:50 (vol/vol) acetone:water. The test solution was prepared at the day of use.
Potted cowpea plants colonized with 100-150 aphids of various stages were sprayed after the pest population had been recorded. Population reduction was assesed after 24, 72, and 120 hours.

Compound: O=C(Nc1cccnc1)c1cncc(C(F)(F)F)c1 [Example 18, N-Pyridin-3-yl-5-trifluoromethylnicotinamide]
- mortality at 2500 ppm [1]: 100%
- mortality at 300 ppm [2]: ≥ 75%
- mortality at 300 ppm [3]: ≥ 90%
- mortality at 2500 µg/mL [4]: ≥ 90%
- mortality at 300 ppm [5]: ≥ 90%
